Earlier results as cited in patent US20180271812A1, “CALCIUM BASED CLINICAL MATERIAL WITH ANTIMICROBIAL PROPERTIES AND METHOD OF FORMING FOR PREVENTION OR TREATMENT OF INFECTION” (Biocomposites Limited, priority 2017, published 2018).
Like-named read-outs stand apart in the source and are kept apart here.

Tests used:
Staphylococcus aureus = settings: breakpoint, EUCAST clinical breakpoints v7.0 (Jan 2017)
[1] = background statement, no test described
Pseudomonas aeruginosa = settings: breakpoint
[2] = American Society for Microbiology Kirby-Bauer disk diffusion susceptibility test protocol
[3] = EUCAST clinical breakpoints v7.0 (Jan 2017)

Compound | ZOI against Staphylococcus aureus, Resistant (Staphylococcus aureus) [mm] | ZOI against Staphylococcus aureus, Susceptible (Staphylococcus aureus) [mm] | pH [1] | ZOI against Pseudomonas aeruginosa, Resistant (Pseudomonas aeruginosa; [2]) [mm] | ZOI against Pseudomonas aeruginosa, Susceptible (Pseudomonas aeruginosa; [2]) [mm] | ZOI against Pseudomonas aeruginosa, Resistant (Pseudomonas aeruginosa; [3]) [mm] | ZOI against Pseudomonas aeruginosa, Susceptible (Pseudomonas aeruginosa; [3]) [mm]
NCC[C@H](O)C(=O)N[C@@H]1C[C@H](N)[C@@H](O[C@H]2O[C@H](CN)[C@@H](O)[C@H](O)[C@H]2O)[C@H](O)[C@H]1O[C@H]1O[C@H](CO)[C@@H](O)[C@H](N)[C@H]1O [Amikacin] | <16 | ≥18 | – | – | – | – | –
C/C=C/C=C/C(=O)O [Sorbic acid] | – | – | 4.76 | – | – | – | –
CN(C)c1cc(NC(=O)CNC(C)(C)C)c(O)c2c1C[C@H]1C[C@H]3[C@H](N(C)C)C(O)=C(C(N)=O)C(=O)[C@@]3(O)C(O)=C1C2=O [Tigecycline] | <18 | ≥18 | – | – | – | – | –
NC[C@H]1O[C@H](O[C@H]2[C@H](O)[C@@H](O[C@H]3O[C@H](CO)[C@@H](O)[C@H](N)[C@H]3O)[C@H](N)C[C@@H]2N)[C@H](N)C[C@@H]1O [Tobramycin] | <18 | ≥18 | – | ≤12 | ≥15 | <16 | ≥16
Gentamicin | <18 | ≥18 | – | ≤12 | ≥15 | <15 | ≥15
